Laboratory results published in patent US6399647B2, “Amide derivatives for antiangiogenic and/or antitumorigenic use” (Vanderbilt University, priority 1999, dated 2002).
Like-named read-outs stand apart in the source and are kept apart here.

Columns and labels:
ovine COX-1 = target: T1, ovine COX-1 (Ovis aries, UniProt P05979); assay: TLC assay, inhibition of purified ovine COX-1; assay type: biochemical; settings: ovine COX-1 (44 nM), inhibitor 20 min, then 1-14C-AA (50 μM) at 37° C. for 30 sec, duplicate
T1 construct: COX-1 was purified from ram seminal vesicles obtained from Oxford Biomedical Research, Inc; tissue Oxford Biomedical Research, Inc. (Oxford, Michigan) (supplier of the tissue); host or cells: ram seminal vesicles
T1 sequence (P05979 25-600): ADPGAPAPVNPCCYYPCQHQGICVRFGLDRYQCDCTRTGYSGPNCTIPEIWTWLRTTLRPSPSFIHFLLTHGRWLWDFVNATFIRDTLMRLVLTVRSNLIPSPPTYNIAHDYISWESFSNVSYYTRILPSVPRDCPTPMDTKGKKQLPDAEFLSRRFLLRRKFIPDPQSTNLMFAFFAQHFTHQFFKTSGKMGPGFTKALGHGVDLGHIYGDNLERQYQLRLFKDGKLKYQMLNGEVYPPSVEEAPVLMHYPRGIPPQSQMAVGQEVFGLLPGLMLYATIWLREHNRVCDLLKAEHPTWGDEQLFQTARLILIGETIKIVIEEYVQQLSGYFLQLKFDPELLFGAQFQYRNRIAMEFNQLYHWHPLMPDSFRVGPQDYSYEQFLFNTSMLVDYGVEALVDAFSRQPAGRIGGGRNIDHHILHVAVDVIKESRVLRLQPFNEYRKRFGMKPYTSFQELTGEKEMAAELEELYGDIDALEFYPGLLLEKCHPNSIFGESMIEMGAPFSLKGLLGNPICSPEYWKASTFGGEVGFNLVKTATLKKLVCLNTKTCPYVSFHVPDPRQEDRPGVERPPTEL

COX-2 [1] = target: T2, COX-2 (Homo sapiens, UniProt P35354); assay: TLC assay, inhibition of purified human COX-2; assay type: biochemical; set-up: made in house; host or cells: insect cells (baculovirus vectors)
T2 sequence (P35354 18-604): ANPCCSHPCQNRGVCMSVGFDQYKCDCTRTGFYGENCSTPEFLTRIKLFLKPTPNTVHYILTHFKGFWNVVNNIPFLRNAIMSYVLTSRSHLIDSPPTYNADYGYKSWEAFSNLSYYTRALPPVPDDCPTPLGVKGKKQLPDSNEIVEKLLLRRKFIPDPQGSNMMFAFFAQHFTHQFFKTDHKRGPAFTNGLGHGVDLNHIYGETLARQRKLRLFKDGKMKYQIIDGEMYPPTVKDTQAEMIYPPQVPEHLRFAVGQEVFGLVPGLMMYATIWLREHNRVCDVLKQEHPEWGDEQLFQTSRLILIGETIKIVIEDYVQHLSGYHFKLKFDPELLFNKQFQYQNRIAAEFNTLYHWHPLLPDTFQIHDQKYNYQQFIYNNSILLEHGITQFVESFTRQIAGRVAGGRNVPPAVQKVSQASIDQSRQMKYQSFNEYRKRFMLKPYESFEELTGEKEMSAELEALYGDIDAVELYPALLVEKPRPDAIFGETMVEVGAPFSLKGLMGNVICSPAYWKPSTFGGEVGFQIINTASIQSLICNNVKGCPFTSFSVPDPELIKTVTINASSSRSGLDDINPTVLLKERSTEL

[2] = system: carrageenan-induced rat foot pad edema; assay: Rat foot pad edema model (carrageenan); assay type: in vivo; settings: 2 mg/kg orally
Experimental: Rats were injected with carrageenan, which triggers a rapid edema (swelling) within 3 hours that can be quantitatively measured by volume displacement.
In these experiments, the carrageenan that was injected was in 0.1 mL of aqueous saline so that 0.1 mL volume increase was due to the injection alone.
More specifically, male Sprague-Dawley rats (150 g) received a subplantar injection of carrageenan (0.1 mL of a 1% suspension of carrageenan in sterile aqueous saline) into the right hind footpad while mildly anesthetized with methoxyflurane. […] The ipsilateral footpad volume (mL) was measured with a water displacement plethysmometer at time=3 hours post-injection and compared to the time=0 pre-injection paw volume for edema calculations.

tumors = settings: background b24; cited from earlier work
COX-2 [3] = target: T2, COX-2; settings: background b24; cited from earlier work
COX-1 = settings: background b24; cited from earlier work
[4] = system: HCA-7 (human colon adenocarcinoma, colony 29) cells; assay: Human tumor xenograft assay in nude mice; assay type: in vivo; settings: HCA-7, 5 mg/kg intraperitoneally 3 times per week
Experimental: Tumor volume was determined by external measurement with an electronic caliper.

Compound `COc1ccc2c(c1)c(CC(=O)N(C)CCc1ccccc1)c(C)n2C(=O)c1ccc(Cl)cc1` [Compound 9, lndomethacin-N-methylphenethyl amide] has an IC50 (ovine COX-1) of over 66 µM.

“Indomethacin-N-2-(2-L-methoxycarbonylethyl) amide [Compound 25]” showed an IC50 (COX-2 [1]; human COX-2 (66 nM), inhibitor 20 min, then 1-14C-AA (50 μM) at 37° C. for 30 sec, duplicate) of 0.4 µM.

In the case of `COc1ccc2c(c1)c(CC(=O)Nc1ccc(NC(C)=O)cc1)c(C)n2C(=O)c1ccc(Cl)cc1` [Compound 14, Indomethacin-N-(4-acetamidophenyl) amide], the “effect on swelling / inflammation (in words)” value [2] was “dramatic decrease in swelling”.

For `COc1ccc2c(c1)c(CC(=O)O)c(C)n2C(=O)c1ccc(Cl)cc1` [Indomethacin, indomethacin, reference compound], the “effect on swelling / inflammation (in words)” value [2] was “comparable reduction in inflammation”.

In the case of `CC1=C(CC(=O)O)c2cc(F)ccc2/C1=C\c1ccc(S(C)(=O)=O)cc1` [sulindac sulfone], the “inhibition of tumors (in words)” value (tumors) is given as “exhibits inhibition of tumors”, the “COX-2 inhibition (in words)” value (COX-2 [3]) is given as “does not inhibit” and the “COX-1 inhibition (in words)” value (COX-1) is given as “does not inhibit”.

For `COc1ccc2c(c1)c(CC(=O)Nc1cccnc1)c(C)n2C(=O)c1ccc(Cl)cc1` [Compound 20, Indomethacin-N-(3-pyridyl) amide], the “COX-2 inhibition (in words)” value (COX-2 [1]) was “potent and selective COX-2 inhibition”.

For “Indomethacin-N-(2-phenethyl) amide [Compound 11]”, the “tumor growth (in words)” value [4] was “significantly inhibited tumor growth”, the “tumor vol. cm^3” value ([4]; day of explant 22) was 0.10 cm^3 and the “tumor vol. cm^3” value ([4]; day of explant 25) was 0.11 cm^3. For the same compound, the “tumor vol. cm^3” value ([4]; day of explant 27) was 0.13 cm^3, the “tumor vol. cm^3” value ([4]; day of explant 29) was 0.14 cm^3 and the “tumor vol. cm^3” value ([4]; day of explant 31) was 0.17 cm^3.

In the case of `CSc1ccc(/C=C2/C(C)=C(CC(=O)O)c3cc(F)ccc32)cc1` [sulindac sulfide], the “inhibition of tumors (in words)” value (tumors) is given as “exhibits inhibition of tumors” and the “more potent inhibitor against COX-1 than COX-2” value (COX-1) is given as 40 fold.
